The text below walks through data of patent US10155756B2, “Pyrazolo[1,5-A]pyridine compounds and use thereof” (GUANGZHOU INSTITUTES OF BIOMEDICINE AND HEALTH, CHINESE …, priority 2014, dated 2018).

In series [1] the test system is Mycobacterium tuberculosis standard strain H37Rv. Nature of the series: MIC of Mycobacterium tuberculosis by a plate method. As to conditions: 7H11 plates, 37° C. for 4 weeks, colony count.
Series [2] concerns self-luminescent tuberculosis. Nature of the series: microbe, parasite or virus in culture. It is filed as cell-based.
For series [3], the system named is mycobacterium tuberculosis self-luminescent bacteria H37Ra. As to conditions: for spleen anti-tuberculosis activity compared with the positive control Rifampicin: in vivo.
Series [4] relates to clinical sorted MDR-TB P105. Nature of the series: microbe, parasite or virus in culture. It is filed as cell-based. As to conditions: Mycobacterium tuberculosis, MDRTBP105.
The subject of series [5] is clinical sorted MDR-TB P103. The series can be described thus: microbe, parasite or virus in culture. Particulars: Mycobacterium tuberculosis, MDRTBP103. Format: cell-based.
The test system of series [6] is clinical sorted MDR-TB P91. Nature of the series: microbe, parasite or virus in culture. Format: cell-based. As to conditions: Mycobacterium tuberculosis, MDRTBP91.
A further series can be described thus: in vivo. Set-up: species or system SD rats. Particulars: rat; for bioavailability / AUC(0-inf) / Cmax / T^1/2 / Tmax: SD. As to the method:
Example 55: Pharmacokinetic Studies of Compounds TJ170298 and TJ170385
1. Administration and Sample Collection a. Rat intravenous administration: SD rats 3, weight 180˜220 g. Fasting 12 h before administration, a small amount of food was allowed during the experiment, and water was free. The compounds TJ170298 and TJ170385 were administered intravenously at a dose of 2 mg/kg. The rats were respectively taken 0.3 mL orbital blood at 2 min, 10 min, 30 min, 1.0 h, 2.0 h, 3.0 h, 4.0 h, 6.0 h, 8.0 h, 12.0 h, 21 h, 24.0 h, 30 h, 36 h, 48 h, 60 h, 72 h after administration, which was then placed in heparinized test tube, centrifuged 10 min at 6000 rpm, and plasma was separated, preserved at 4° C. to be measured. […]
b. Rat oral administration: SD rats 3, weight 180˜220 g. Fasting for 12 h before administration, a small amount of food was allowed during the experiment, and water was free. The compounds TJ170298 and TJ170385 were orally administered at a dose of 10 mg/kg, respectively. The rats were respectively taken 0.3 mL orbital blood at 2 min, 10 min, 30 min, 1.0 h, 2.0 h, 3.0 h, 4.0 h, 6.0 h, 8.0 h, 12.0 h, 21 h, 24.0 h, 30 h, 36 h, 48 h, 60 h, 72 h after administration, which was then placed in heparinized test tube, centrifuged 10 min at 6000 rpm, and plasma was separated, preserved at 4° C. to be measured.
2. Determination of Plasma Samples a. Plasma Sample Treatment
150 μl of the internal standard solution ([…], acetonitrile solution) was added to 50 μL of the above plasma sample, mixed well; after eddy mixing for 2 min, centrifuge for 30 min (13000 rpm, 4° C.), supernatant was taken to another centriguge tube, and 20 μL of which was taken for LC/MS/MS analysis. […]
b. Preparation of Standard Curve
50 μL of rat blank plasma was taken, to which 10 μL of compound standard series solution was added to prepare compound plasma samples equivalent to plasma concentration of 20, 50, 100, 500, 1000, 2000, 4000, 6000, 12000, 40000 ng/mL. According to “plasma sample treatment” item, the standard curve was established. The concentration (X) of an analyte is as the abscissa, the peak area ratio (y) of the analyte and the internal standard is as the ordinate, and the regression is performed by the weighted (W=1/x2) least squares method to obtain the linear regression Equation, that is, the standard curve.
C. Data Processing and Analysis
The pharmacokinetic parameters of rats after administration were calculated by DAS 2.0 software.

Series [7] has as its system Mycobacterium tuberculosis standard strain H37Rv. The series can be described thus: Plate MIC of Example 53, standard strain H37Rv. Format: cell-based.
Where [8] appears, read: Mycobacterium tuberculosis, 72 h; read-out: MIClux.
Where [9] appears, read: Mycobacterium tuberculosis, 72 h, read-out: MIClux.

≈ marks a conversion by molar mass, not a printed value. Structures can show the parent of a compound that is named as a salt. Where two headings read alike, the source gives them in different places.

For the molecule `O=C(NCc1ccc(N2CCC(c3ccc(OC(F)(F)F)cc3)CC2)cc1)c1c(C2CC2)nn2ccc(Cl)cc12` [TJ170375, 5-chloro-2-cyclopropyl-N-(4-(4-(4-(trifluoromethoxy)phenyl)piperidine-1-substituted)benzyl) pyrazolo [1,5-a] pyridine-3-carboxamide], the MIC is 0.1 µg/mL in series [1] and < 1 µg/mL in series [2] (setting [8]).

On to `NNC(=O)c1ccncc1` [isoniazid, reference compound], for which, in series [1], the MIC result is reported as “<=0.1 μg/mL”.

Turning to `Cc1nn2ccc(Cl)cc2c1C(=O)NCc1ccc(N2CCC(c3ccc(OC(F)(F)F)cc3)CC2)cc1` [TJ170372, 5-chloro-2-methyl-N-(4-(4-(4-(trifluoromethoxy)phenyl)piperidine-1-yl)benzyl) pyrazolo [1,5-a] pyridine-3-carboxamide], the MIC in series [1] turned out to be 0.01 µg/mL. Also, in series [3], the “in vivo anti-tuberculosis activity (luminous values within live mice)” value is “obvious in vivo anti-tuberculosis activity”, the “in vivo anti-tuberculosis activity compared with the positive control Rifampicin” value is recorded as “equal to or better than that of the positive control Rifampicin” and the “spleen anti-tuberculosis activity compared with the positive control Rifampicin” value is listed as “bad than that of the positive control Rifampicin”. For the same molecule, in series [2] (setting [8]), the MIC was < 1 µg/mL.

For `CO[C@H]1/C=C/O[C@@]2(C)Oc3c(C)c(O)c4c(O)c(c(/C=N/N5CCN(C)CC5)c(O)c4c3C2=O)NC(=O)/C(C)=C\C=C\[C@H](C)[C@H](O)[C@@H](C)[C@@H](O)[C@@H](C)[C@H](OC(C)=O)[C@@H]1C` [RIF, rifampicin, reference compound], the figures for the MIC in series [4], in series [5] and in series [6] were > 10 µg/mL, > 10 µg/mL and 1 to 10 µg/mL (≈ 1.22 to 12.2 µM), respectively.

For the molecule `CCc1nn2ccc(Cl)cc2c1C(=O)NCc1ccc(C(F)(F)F)cc1` [TJ170322], the MIC in series [1] was 0.1 µg/mL; in series [2] (setting [8]), < 1 µg/mL.

For the molecule `COc1ccc(C2CCN(c3ccc(CNC(=O)c4c(C)nn5ccc(C)cc45)cc3)CC2)cc1` [TJ830140, N-(4-(4-(4-methoxyphenyl)piperidine-1-yl)benzyl)-2,5-dimethyl-pyrazolo [1,5-a] pyridine-3-carboxamide], in series [2] (setting [8]), the MIC was < 1 µg/mL.

As for `CCc1nn2ccc(Cl)cc2c1C(=O)NCCc1ccc(N2CCC(c3ccc(OC(F)(F)F)cc3)CC2)cc1` [TJ830128, 5-chloro-2-ethyl-N-(4-(4-(4-(trifluoromethoxy)phenyl)piperidine-1-yl)phenethyl) pyrazolo [1,5-a] pyridine-3-carboxamide], the MIC in series [2] (setting [8]) fell in the range of 1 to 10 µg/mL (≈ 1.75 to 17.5 µM).

As to `Cc1nn2ccc(Br)cc2c1C(=O)NCc1ccc(N2CCC(c3ccc(OC(F)(F)F)cc3)CC2)cc1` [TJ830008, 5-bromo-2-methyl-N-(4-(4-(4-(trifluoromethoxy)phenyl)piperidine-1-yl)benzyl) pyrazolo [1,5-a] pyridine-3-carboxamide], the MIC in series [2] (setting [8]) is < 1 µg/mL.

`CCc1nn2ccc(Cl)cc2c1C(=O)NCc1cn(-c2ccc(OC(F)(F)F)cc2)nn1` [TJ064983]: in series [2] (setting [8]), the MIC is > 10 µg/mL.

Take `Cc1nn2ccccc2c1C(=O)NCc1ccc(N2CCC(c3ccc(OC(F)(F)F)cc3)CC2)cc1` [TJ170381, 2-methyl-N-(4-(4-(4-(trifluoromethoxy)phenyl)piperidine-1-yl)benzyl) pyrazolo [1,5-a] pyridine-3-carboxamide]: the values for the MIC in series [1] and in series [2] (setting [9]) were 0.1 µg/mL and < 1 µg/mL, respectively.

What is called bioavailability is the share of a dose that reaches the circulation, judged against a reference dose that is usually intravenous. A lower bioavailability goes with little systemic uptake. In general, AUC(0-inf) refers to the area under the concentration-time curve extrapolated to infinity. A low value points to low exposure. A word on the Cmax: it is the highest concentration seen after dosing. Usually Tmax stands for the time at which the peak concentration occurs. For the molecule `CCc1nn2ccc(Cl)cc2c1C(=O)NCc1ccc(N2CCC(c3ccc(OC(F)(F)F)cc3)CC2)cc1` [TJ170298 (hydrochloride), 5-chloro-2-ethyl-N-(4-(4-(4-(trifluoromethoxy)phenyl)piperidine-1-yl)benzyl) pyrazolo [1,5-a]pyridine-3-carboxamide], the bioavailability in “in vivo” is 24.1%. Also, in “in vivo” (iv, 2 mg/kg), the AUC(0-inf) was 3900 ng·h/mL, the peak level (Cmax) was 1550 ng/mL, the “T^1/2” value turned out to be 19.975 h and the time of peak concentration (Tmax) was found to be 0.033 h. Besides, in the series “in vivo” (po, 10 mg/kg), the AUC(0-inf) was 4700 ng·h/mL, the highest level (Cmax) was 509 ng/mL, the “T^1/2” value was 19.699 h and the time of peak concentration (Tmax) was 2 h.

`Cc1ccn2nc(C)c(C(=O)NCc3ccc(N4CCC(c5ccc(OC(F)(F)F)cc5)CC4)cc3)c2c1` [TJ170385, 2,5-dimethyl-N-(4-(4-(4-(trifluoromethoxy)phenyl)piperidine-1-yl)benzyl) pyrazolo [1,5-a] pyridine-3-carboxamide]: the MIC in series [1] came out at 0.01 µg/mL. Further, in “in vivo”, the bioavailability is 94.5% and the “pharmacokinetic properties (in words)” value is listed as “good pharmacokinetic properties”. In addition, in the series “in vivo” (iv, 2 mg/kg), the total exposure AUC(0-inf) is 2030 ng·h/mL, the peak level (Cmax) was 1040 ng/mL and the “T^1/2” value is reported as 10.933 h. Moreover, in “in vivo” (po, 10 mg/kg), the total exposure AUC(0-inf) was found to be 9590 ng·h/mL, the peak concentration (Cmax) was found to be 644 ng/mL, the “T^1/2” value was 27.374 h and the time of peak concentration (Tmax) was 2 h. In series [3], the “in vivo anti-tuberculosis activity (luminous values within live mice)” value is “obvious in vivo anti-tuberculosis activity”, the “in vivo anti-tuberculosis activity compared with the positive control Rifampicin” value is listed as “equal to or better than that of the positive control Rifampicin” and the “spleen anti-tuberculosis activity compared with the positive control Rifampicin” value is on record as “bad than that of the positive control Rifampicin”. In series [2] (setting [9]), the MIC is < 1 µg/mL.

For the molecule `CCc1nn2ccc(Cl)cc2c1C(=O)NCc1ccc(-c2ccc(OC(F)(F)F)cc2)nc1` [TJ830028, 5-chloro-2-ethyl-N-((6-(4-(trifluoromethoxy)phenyl)pyridine-3-yl)methyl) pyrazolo [1,5-a] pyridine-3-carboxamide], in series [2] (setting [8]), the MIC is < 1 µg/mL.

With `CCc1nn2ccc(Cl)cc2c1C(=O)Nc1ccc(N2CCC(c3ccc(OC(F)(F)F)cc3)CC2)cc1` [TJ064819, 5-chloro-2-ethyl-N-(4-(4-(4-(trifluoromethoxy)phenyl)piperidine-1-yl)phenyl) pyrazolo [1,5-a] pyridine-3-carboxamide], the MIC in series [2] (setting [8]) is > 10 µg/mL.

In the case of `CCc1nn2ccc(Cl)cc2c1C(=O)NCc1ccc(N2CCC(c3ccc(OC(F)(F)F)cc3)CC2)cc1` [TJ170298, 5-chloro-2-ethyl-N-(4-(4-(4-(trifluoromethoxy)phenyl)piperidine-1-yl)benzyl) pyrazolo [1,5-a]pyridine-3-carboxamide], the MIC is 0.15 µg/mL (≈ 0.269 µM) in series [4]; < 0.075 µg/mL in series [5]; < 0.075 µg/mL in series [6]; 0.012 µg/mL in series [7]; < 1 µg/mL in series [2] (setting [9]). Further, in “in vivo”, the “pharmacokinetic properties (in words)” value is “good pharmacokinetic properties”. Also, the “in vivo anti-tuberculosis activity (luminous values within live mice)” value in series [3] was “obvious in vivo anti-tuberculosis activity”. Moreover, the “in vivo anti-tuberculosis activity compared with the positive control Rifampicin” value in series [3] was “equal to or better than that of the positive control Rifampicin”. Besides, in series [3], the “spleen anti-tuberculosis activity compared with the positive control Rifampicin” value is on record as “bad than that of the positive control Rifampicin”.

Regarding `Cc1nn2ccc(-c3ccccc3)cc2c1C(=O)NCc1ccc(N2CCC(c3ccc(OC(F)(F)F)cc3)CC2)cc1` [TJ830012, 5-phenyl-2-methyl-N-(4-(4-(4-(trifluoromethoxy)phenyl)piperidine-1-yl)benzyl) pyrazolo [1,5-a] pyridine-3-carboxamide], the MIC in series [2] (setting [8]) is > 10 µg/mL.
